Measurements taken from US8993717B2, “Gadd45beta targeting agents” (Imperial Innovations Limited, priority 2009, dated 2015).
pIC50: −log10 of the molar value. Read-outs that look alike come from different tables or passages of the source. Square brackets hold non-standard residues; d marks the D form. Peptide text beside a SMILES is read from it. * marks the point of attachment. Cbz = O=C(OCc1ccccc1)*

Tests used:
Gadd45β/MKK7 interaction = molecular target: T1, Gadd45β/MKK7 interaction (Homo sapiens, UniProt O14733); test: ELISA competition assay after 48-hr pre-incubation with human serum at 37° C.; type: binding; conditions: for stability after pre-incubation with human serum: result in words
T1 construct: The GST-fused full-length kinase was coated for 16 h at 4° C., at a concentration of 42 nM; made in house
T1 sequence (O14733 1-419): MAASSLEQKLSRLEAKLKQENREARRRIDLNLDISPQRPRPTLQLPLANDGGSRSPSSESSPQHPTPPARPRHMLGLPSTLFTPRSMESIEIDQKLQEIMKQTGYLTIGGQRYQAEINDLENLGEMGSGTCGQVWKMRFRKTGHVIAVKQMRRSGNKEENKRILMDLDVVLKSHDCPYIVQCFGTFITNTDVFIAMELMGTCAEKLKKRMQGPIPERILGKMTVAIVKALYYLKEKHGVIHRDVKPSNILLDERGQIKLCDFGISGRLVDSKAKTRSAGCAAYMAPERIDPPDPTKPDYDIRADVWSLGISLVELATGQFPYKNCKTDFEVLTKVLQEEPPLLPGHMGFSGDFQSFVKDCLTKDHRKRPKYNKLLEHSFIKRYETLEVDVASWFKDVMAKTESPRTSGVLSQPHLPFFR
Experimental: In FIG. 4, Gadd45β/MKK7 binding, competition ELISA assays were carried out to determine the stability of Z-conjugated D-tetrapeptides in human serum. […] ELISA were performed as described in FIG. 3 C. Briefly, 100 μl of 42 nM of recombinant GST-MKK7 in ELISA buffer (25 mM Tris pH 7.5, 150 mM NaCl, 1 mM DTT, 1 mM EDTA) were coated onto wells of 96-well plates by overnight incubation at 4° C. After blocking with 2% of NFDM for 1 hr at 37° C., plates were washed with TPBS, and then 21 nM of recombinant, biotinylated human (h)Gadd45β were added to the wells together with increasing concentrations of tetrapeptides which had either been subjected or had not been subjected to pre-incubation with human serum, as indicated. For a further discussion of the conditions used for the competition ELISA assay, the reader is directed to Tornatore et al 2008 JMB, 378: 97-111 and the references therein.

[1] = test system: KMS12 multiple myeloma cells; test: [3H]thymidine incorporation assay in KMS12; type: cell-based, human; conditions: read-out: IC50 [H^3] thymidine incorporation assay in KMS12
Experimental: In these latter assays, the effects of Z-DTPs, Ac-DTPs and Z-LTPs on the survival/proliferation of tumour cell lines was investigated by measuring DNA synthesis using standard tritiated thymidine ([^3H]thymidine; [^3H]-TdR) uptake assays. In the analyses shown, cells were incubated for 24, 72, 120 or 144 hrs at 37° C. in the presence or absence of control or bioactive tetrapeptides, as indicated, then subjected to an additional incubation for 18 hrs with [^3H]-TdR (0.037 MBq/well, equivalent to 0.5 μCi/well). Cells were subsequently harvested onto glass fibre filter mats using a 96-well plate automated cell harvester, after which scintillation fluid was added, and [^3H]thymidine incorporation measured by liquid scintillation spectroscopy on a beta counter. The results are expressed as the percentages of the counts per minute (c.p.m.) (directly correlating with the extent of cell proliferation) measured with tetrapeptide-treated cultures relative to the c.p.m. measured with the corresponding cultures incubated with medium alone (untreated cells). All experiments were performed in triplicate.

[2] = test system: primary B and T lymphocytes; test: [3H]thymidine incorporation in purified primary B and T lymphocytes; type: cell-based, mouse; conditions: 100 μM, 72 hrs
Experimental: (§1) In order to determine the in vitro therapeutic index of Z-/mDTPs, viability and proliferation assays were also performed with primary untransformed cells of both human and mouse origin, after treatment with either 10 μM or 100 μM of Z-DTP1, Z-DTP2 and Z-DNC. To this end, bone marrow stromal cells (BMSCs) peripheral blood mononuclear cells (PBMNCs) and mesenkymal stem cells (MSCs) were purified from healthy individuals after Ficoll-Hypaque density separation, in accordance with the protocols reported in the reference by Piva R. et all 2008 Blood 111: 2765-2775). BMSCs, PBMNCs, and MSCs cells were then treated for the times indicated and with the peptide concentrations specified in FIGS. 15A and 15B. To further establish the specificity of the cytotoxic activity of Z-/mDTPs for cancer cells, we also used primary B and T lymphocytes purified from the spleen and lymph nodes of mice, respectively, essentially as described in the reference by Shirakawa et al 2010 Cell Mal immunology 1-12. B and T cells were then activated by simulation with 1 ng/mL of LPS for 16 hrs and subsequently treated with 100 μM of Z-DTP1, Z-DTP2 or Z-DNC for 72 hrs as shown in FIG. 15B.

BMSCs, PBMNCs and MSCs = test: Viability/proliferation of primary untransformed human cells; type: cell-based; conditions: up to 100 μM; 48 hrs or 144 hrs
Experimental: as §1

[3] = test system: KMS11 multiple myeloma cells; test: [3H]thymidine incorporation assay in KMS11; type: cell-based, human; conditions: read-out: IC50 [H^3] thymidine incorporation assay in KMS11
Experimental: Cultures of multiple myeloma cells and treatments with Z-DTPs were carried out as described in Example 8 (see below). The effects of Z-DTPs on the survival/proliferation of multiple myeloma cells were evaluated by the use of [^3H]thymidine) incorporation assays, performed as also described in Example 8. The amount of cell proliferation measured with each of the Z-DTPs' concentrations used and with the untreated cultures (i.e. cultures incubated with medium alone), was expressed as counts per minute (c.p.m.)—which directly correlate with the extent of cell proliferation. All experiments were performed in triplicate.
In these latter assays, the effects of Z-DTPs, Ac-DTPs and Z-LTPs on the survival/proliferation of tumour cell lines was investigated by measuring DNA synthesis using standard tritiated thymidine ([^3H]thymidine; [^3H]-TdR) uptake assays. In the analyses shown, cells were incubated for 24, 72, 120 or 144 hrs at 37° C. in the presence or absence of control or bioactive tetrapeptides, as indicated, then subjected to an additional incubation for 18 hrs with [^3H]-TdR (0.037 MBq/well, equivalent to […]). Cells were subsequently harvested onto glass fibre filter mats using a 96-well plate automated cell harvester, after which scintillation fluid was added, and [^3H]thymidine incorporation measured by liquid scintillation spectroscopy on a beta counter. The results are expressed as the percentages of the counts per minute (c.p.m.) (directly correlating with the extent of cell proliferation) measured with tetrapeptide-treated cultures relative to the c.p.m. measured with the corresponding cultures incubated with medium alone (untreated cells). All experiments were performed in triplicate.

| Structure (SMILES) | pIC50 (Gadd45β/MKK7 interaction) | stability after pre-incubation with human serum (Gadd45β/MKK7 interaction) | pIC50 ([1]; Day 1) | pIC50 ([1]; Day 3, listed as Z-DTP2) | pIC50 ([1]; Day 3) | pIC50 ([1]; Day 6) | toxicity to primary B and T lymphocytes from mice [2] | toxicity to normal primary human cells (BMSCs, PBMNCs, MSCs) (BMSCs, PBMNCs and MSCs) | pIC50 ([3]; Day 1, listed as Z-DTP2) | pIC50 ([3]; Day 1) | pIC50 ([3]; Day 3) | pIC50 ([3]; Day 6) | pIC50 ([1]; Day 6, listed as mDTP3) | pIC50 ([3]; Day 6, listed as mDTP3) |
| --- | --- | --- | --- | --- | --- | --- | --- | --- | --- | --- | --- | --- | --- | --- |
| N=C(N)NCCC[C@@H](NC(=O)[C@@H](CCC(=O)O)NC(=O)[C@@H](Cc1ccc(O)cc1)NC(=O)OCc1ccccc1)C(=O)N[C@H](Cc1ccccc1)C(N)=O [Compound 9, Z-D-Tyr-D-Glu-D-Arg-D-Phe-NH2] (Cbz-[dY][dE][dR][dF]-NH2) | 9.74 | completely stable | 5.89 | 6.84 | 6.85 | 7.18 | no toxicity | no toxicity | 5.54 | 5.54 | 7.59 | 7.18 | – | – |
| NC(=O)[C@@H](Cc1ccccc1)NC(=O)[C@@H](Cc1c[nH]cn1)NC(=O)[C@@H](CC(=O)O)NC(=O)[C@@H](Cc1ccc(O)cc1)NC(=O)OCc1ccccc1 [Compound 1, Z-Tyr-Asp-His-Phe-NH2] (Cbz-[dY][dD][dH][dF]-NH2) | 9.72 | completely stable | – | – | – | – | no toxicity | no toxicity | – | – | – | – | – | – |
| CC(=O)N[C@H](Cc1ccc(O)cc1)C(=O)N[C@H](CCCNC(=N)N)C(=O)N[C@H](Cc1ccccc1)C(N)=O [Compound 17, Ac-D-Tyr-D-Arg-D-Phe-NH2] (Ac-[dY]-[dR]-[dF]-NH2) | – | – | 6.45 | – | 7.09 | 7.80 | – | – | – | 6.00 | – | 7.60 | 7.60 | 7.80 |
